Data: patent US11419826B2, “Surface-modified mesoporous silica nanoparticle for blood-brain barrier penetration,tumor targeting and cancer metastasis treatment, methods of production and uses thereof” (NANO TARGETING & THERAPY BIOPHARMA INC., priority 2019, dated 2022)

Columns and labels:
U87-LUC glioma cells = assay: U87-LUC orthotopic glioma xenograft mouse model; format: in vivo; settings: Dox 10 mg/kg i.v. every 4 days for 3 times
Procedure: U87-LUC glioma cells were cultured at 37° C. in a humidified 5% CO2 atmosphere in minimum essential median (MEM) supplemented with 10% fetal bovine serum and 1% penicillin/streptomycin (Invitrogen). Cells were harvested by trypsinization, washed once with phosphate-buffered saline (PBS), and re-suspended (1×10^5 cell/μL) in MEM for subsequent implantation into the striatum of mouse brains. Pathogen-free male NU/NU mice (5 to 7 weeks old) were purchased from BioLASCO (Taiwan). Mice were housed and maintained in a controlled environment and all procedures were performed in accordance with the experimental animal care guidelines of the Animal Committee of Chang Gung University. To implant U87-LUC tumor cells, animals were anesthetized with 2% isoflurane gas and immobilized on a stereotactic frame. […] The growth of the brain tumor was monitored by IVIS and MRI.
Dox is a well-known anti-cancer drug approved for treatment of multiple cancers. […] To evaluate the efficacy of Dox@MSN-PEG+TA anti-brain tumor in vivo, the U87-LUC brain cells were implanted orthotopically into nude mice to serve as the U87-LUC xenograft mouse model; U87-LUC cells can express luciferase for quantification of tumor cells in vivo. […] The distribution of MSN-PEG+TA and Dox@MSN-PEG+TA in brain tissue and tumor were assessed from the tumor sections from nanoparticle treated mice. […]

[1] = Pharmacokinetics and quantification of Dox accumulation in plasma and brain; settings: single i.v. dose, Dox 7.5 mg/kg; after 15 minutes
Procedure: Healthy balb/c mice were single dose intravenously injected with Dox or Dox@NTT0_18 at 7.5 mg/kg. To determine the Dox concentration in plasma and brain, blood samples were taken at 15, 30, 60, 180, 360 and 1440 minutes after injection, and after the blood samples were taken, each animal was sacrificed and perfused with PBS to obtain the brain. Dox was extracted from the samples (plasma and brain respectively) for the determination of dox concentration with a spectrophotometer.
Mice received a single dose of Dox or Dox@NTT0_18 (MSN-PEG+TA-loaded Dox) through intravenous injection (all at Dox dose 7.5 mg/kg). To determine the Dox concentration in plasma and brain, blood samples were taken at 15, 30, 60, 180, 360 and 1440 minutes after injection and animals were sacrificed and perfused with PBS at each time point. Dox was extracted from plasma and brain and the Dox concentration was measured using a spectrophotometer. The concentration versus time curves of Dox in plasma with and without MSN-PEG+TA encapsulated was also established.

COc1cccc2c1C(=O)c1c(O)c3c(c(O)c1C2=O)C[C@@](O)(C(=O)CO)C[C@@H]3O[C@H]1C[C@H](N)[C@H](O)[C@H](C)O1 [Dox, doxorubicin]
toxicity / body weight of treated mice (U87-LUC glioma cells): causes death of the host
tumor size (U87-LUC glioma cells; during the treatment period): shrunk during the treatment period
Dox concentration in plasma [1]: lower than 0.2 μg/mL
